Source: US10947227B2, “Tricyclic heterocyclic compounds as sting activators” (Incyte Corporation, priority 2018, dated 2021)

biological target: human STING (Homo sapiens, UniProt Q86WV6); experiment: not given; details: cited from earlier work
Sequence (Q86WV6 whole entry H232R): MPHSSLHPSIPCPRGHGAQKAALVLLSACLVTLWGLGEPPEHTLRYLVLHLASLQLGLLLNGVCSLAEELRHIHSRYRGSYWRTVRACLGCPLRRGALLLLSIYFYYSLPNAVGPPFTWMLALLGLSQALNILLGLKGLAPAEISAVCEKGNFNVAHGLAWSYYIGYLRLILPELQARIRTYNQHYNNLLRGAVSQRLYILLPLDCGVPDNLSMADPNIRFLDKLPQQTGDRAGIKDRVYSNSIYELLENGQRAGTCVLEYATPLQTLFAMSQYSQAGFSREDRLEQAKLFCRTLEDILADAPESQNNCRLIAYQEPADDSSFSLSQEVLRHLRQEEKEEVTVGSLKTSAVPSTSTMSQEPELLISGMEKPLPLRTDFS

In the case of `Cc1ccc2c(=O)c3cccc(CC(=O)O)c3oc2c1C` [DMXAA, 5,6-dimethylxanthenone-4-acetic acid], the “bind and activate human STING” value is listed as “not human STING”.

system: established tumors; experiment: not given; details: preclinical mouse models; cited from earlier work

In the case of `Cc1ccc2c(=O)c3cccc(CC(=O)O)c3oc2c1C` [DMXAA, 5,6-dimethylxanthenone-4-acetic acid], the anti-tumor activity is listed as “excellent anti-tumor activity”.

system: IRF3 activation in THP-1 Dual Cells; experiment: IRF3 activation assay in THP-1 Dual Cells (QUANTI-Blue readout); type: cell-based; details: Homo sapiens, THP1-Dual, 24 h, Table 2, 24 hours incubation
Summary of the method: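 THP-1 Dual cells (100,000/well) were incubated with serially diluted compounds 24 h at 37 °C. […]; EC50 from percent control activity versus log concentration.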

`CCn1nc(C)cc1C(=O)Nc1nc2cc(C(N)=O)cc(OCCCO)c2n1C/C=C/Cn1c2nc(-c3cc(C)nn3CC)ncc2c2cc(C(N)=O)cc(OCCCNC(=O)CCCC(=O)O)c21` [Example 48, (E)-5-(3-(6-carbamoyl-9-(4-(5-carbamoyl-2-(1-ethyl-3-methyl-1H-pyrazole-5-carboxamido)-7-(3-hydroxypropoxy)-1H-benzo[d]imidazol-1-yl)but-2-enyl)-2-(1-ethyl-3-methyl-1H-pyrazol-5-yl)-9H-pyrimido[4,5-b]indol-8-yloxy)propylamino)-5-oxopentanoic Acid] and `CCn1nc(C)cc1C(=O)Nc1nc2cc(C(N)=O)cc(OCCCOC)c2n1C/C=C/Cn1c2nc(-c3cc(C)nn3CC)ncc2c2cc(C(N)=O)cc(OCCCNC(=O)CCCC(=O)O)c21` [Example 50, (E)-5-(3-(6-carbamoyl-9-(4-(5-carbamoyl-2-(1-ethyl-3-methyl-1H-pyrazole-5-carboxamido)-7-(3-methoxypropoxy)-1H-benzo[d]imidazol-1-yl)but-2-enyl)-2-(1-ethyl-3-methyl-1H-pyrazol-5-yl)-9H-pyrimido[4,5-b]indol-8-yloxy)propylamino)-5-oxopentanoic Acid] cannot be ordered by EC50: under 50 nM for the first, under 50 nM for the second.

Compared with `CCn1nc(C)cc1C(=O)Nc1nc2cc(C(N)=O)cc(OCCCO)c2n1C/C=C/Cn1c2nc(-c3cc(C)nn3CC)ncc2c2cc(C(N)=O)cc(OCCCNC(=O)OCCC(=O)O)c21` [Example 49, (E)-3-(3-(6-carbamoyl-9-(4-(5-carbamoyl-2-(1-ethyl-3-methyl-1H-pyrazole-5-carboxamido)-7-(3-hydroxypropoxy)-1H-benzo[d]imidazol-1-yl)but-2-enyl)-2-(1-ethyl-3-methyl-1H-pyrazol-5-yl)-9H-pyrimido[4,5-b]indol-8-yloxy)propylcarbamoyloxy)propanoic Acid], `CCn1nc(C)cc1C(=O)Nc1nc2cc(C(N)=O)cc(OCCCO)c2n1C/C=C/Cn1c2nc(-c3cc(C)nn3CC)ncc2c2cc(C(N)=O)cc(OCCCOC(=O)NCCC(=O)O)c21` [Example 57, (E)-3-((3-(6-carbamoyl-9-(4-(5-carbamoyl-2-(1-ethyl-3-methyl-1H-pyrazole-5-carboxamido)-7-(3-hydroxypropoxy)-1H-benzo[d]imidazol-1-yl)but-2-enyl)-2-(1-ethyl-3-methyl-1H-pyrazol-5-yl)-9H-pyrimido[4,5-b]indol-8-yloxy)propoxy)carbonylamino)propanoic Acid] is higher in EC50: under 50 nM for the first, 50 to 200 nM for the second. The first is the more potent here.

Compared with `CCn1nc(C)cc1C(=O)Nc1nc2cc(C(N)=O)cc(OCCCOC)c2n1C/C=C/Cn1c2nc(-c3cc(C)nn3CC)ncc2c2cc(C(N)=O)cc(OCCCNC(=O)OCCC(=O)O)c21` [Example 51, (E)-3-(3-(6-carbamoyl-9-(4-(5-carbamoyl-2-(1-ethyl-3-methyl-1H-pyrazole-5-carboxamido)-7-(3-methoxypropoxy)-1H-benzo[d]imidazol-1-yl)but-2-enyl)-2-(1-ethyl-3-methyl-1H-pyrazol-5-yl)-9H-pyrimido[4,5-b]indol-8-yloxy)propylcarbamoyloxy)propanoic Acid], `CCn1nc(C)cc1C(=O)Nc1nc2cc(C(N)=O)cc(OCCCOC)c2n1C/C=C/Cn1c2nc(-c3cc(C)nn3CC)ncc2c2cc(C(N)=O)cc(OCCCOC(=O)NCCC(=O)O)c21` [Example 52, (E)-3-((3-(6-carbamoyl-9-(4-(5-carbamoyl-2-(1-ethyl-3-methyl-1H-pyrazole-5-carboxamido)-7-(3-methoxypropoxy)-1H-benzo[d]imidazol-1-yl)but-2-enyl)-2-(1-ethyl-3-methyl-1H-pyrazol-5-yl)-9H-pyrimido[4,5-b]indol-8-yloxy)propoxy)carbonylamino)propanoic Acid] is higher in EC50: under 50 nM for the first, 50 to 200 nM for the second. The first is the more potent here.

`CCn1nc(C)cc1C(=O)Nc1nc2cc(C(N)=O)cc(OCCCOC)c2n1C/C=C/Cn1c2nc(-c3cc(C)nn3CC)ncc2c2cc(C(N)=O)cc(OCCOCCOCCC(=O)O)c21` [Example 53, (E)-3-(2-(2-(6-carbamoyl-9-(4-(5-carbamoyl-2-(1-ethyl-3-methyl-1H-pyrazole-5-carboxamido)-7-(3-methoxypropoxy)-1H-benzo[d]imidazol-1-yl)but-2-enyl)-2-(1-ethyl-3-methyl-1H-pyrazol-5-yl)-9H-pyrimido[4,5-b]indol-8-yloxy)ethoxy)ethoxy)propanoic Acid] and `CCn1nc(C)cc1C(=O)Nc1nc2cc(C(N)=O)cc(OCCCOC)c2n1C/C=C/Cn1c2nc(-c3cc(C)nn3CC)ncc2c2cc(C(N)=O)cc(OCCOCCOCCOCCC(=O)O)c21` [Example 54, (E)-3-(2-(2-(2-(6-carbamoyl-9-(4-(5-carbamoyl-2-(1-ethyl-3-methyl-1H-pyrazole-5-carboxamido)-7-(3-methoxypropoxy)-1H-benzo[d]imidazol-1-yl)but-2-enyl)-2-(1-ethyl-3-methyl-1H-pyrazol-5-yl)-9H-pyrimido[4,5-b]indol-8-yloxy)ethoxy)ethoxy)ethoxy)propanoic Acid] fall in the same range of EC50: 50 to 200 nM for the first, 50 to 200 nM for the second.

`CCn1nc(C)cc1C(=O)Nc1nc2cc(C(N)=O)cc(OC)c2n1C/C=C/Cn1c2nc(-c3cc(C)nn3CC)ncc2c2cc(C(N)=O)cc(OCCC3CCN(CCCC(=O)O)CC3)c21` [Example 55, (E)-4-(4-(2-(6-carbamoyl-9-(4-(5-carbamoyl-2-(1-ethyl-3-methyl-1H-pyrazole-5-carboxamido)-7-methoxy-1H-benzo[d]imidazol-1-yl)but-2-enyl)-2-(1-ethyl-3-methyl-1H-pyrazol-5-yl)-9H-pyrimido[4,5-b]indol-8-yloxy)ethyl)piperidin-1-yl)butanoic Acid] and `CCn1nc(C)cc1C(=O)Nc1nc2cc(C(N)=O)cc(OC)c2n1C/C=C/Cn1c2nc(-c3cc(C)nn3CC)ncc2c2cc(C(N)=O)cc(OCCC3CCN(C(=O)OCC(=O)O)CC3)c21` [Example 56, (E)-2-(4-(2-(6-carbamoyl-9-(4-(5-carbamoyl-2-(1-ethyl-3-methyl-1H-pyrazole-5-carboxamido)-7-methoxy-1H-benzo[d]imidazol-1-yl)but-2-enyl)-2-(1-ethyl-3-methyl-1H-pyrazol-5-yl)-9H-pyrimido[4,5-b]indol-8-yloxy)ethyl)piperidine-1-carbonyloxy)acetic Acid] fall in the same range of EC50: 50 to 200 nM for the first, 50 to 200 nM for the second.

First: CCn1nc(C)cc1C(=O)Nc1nc2cc(C(N)=O)cc(OCCCOC(=O)NCCC(=O)O)c2n1C/C=C/Cn1c2nc(-c3cc(C)nn3CC)ncc2c2cc(C(N)=O)cc(OCCOCCOCCC(=O)O)c21 [Example 58, (E)-3-(((3-((5-carbamoyl-1-(4-(6-carbamoyl-8-(2-(2-(2-carboxyethoxy)ethoxy)ethoxy)-2-(1-ethyl-3-methyl-1H-pyrazol-5-yl)-9H-pyrimido[4,5-b]indol-9-yl)but-2-en-1-yl)-2-(1-ethyl-3-methyl-1H-pyrazole-5-carboxamido)-1H-benzo[d]imidazol-7-yl)oxy)propoxy)carbonyl)amino)propanoic Acid]
Second: CCn1nc(C)cc1C(=O)Nc1nc2cc(C(N)=O)cc(OCCCNC(=O)CCC(=O)O)c2n1C/C=C/Cn1c2nc(-c3cc(C)nn3CC)ncc2c2cc(C(N)=O)cc(OCCCOC)c21 [Example 59, (E)-4-((3-((5-carbamoyl-1-(4-(6-carbamoyl-2-(1-ethyl-3-methyl-1H-pyrazol-5-yl)-8-(3-methoxypropoxy)-9H-pyrimido[4,5-b]indol-9-yl)but-2-en-1-yl)-2-(1-ethyl-3-methyl-1H-pyrazole-5-carboxamido)-1H-benzo[d]imidazol-7-yl)oxy)propyl)amino)-4-oxobutanoic Acid]
The EC50 of the first is higher: 200 to 500 nM for the first, 50 to 200 nM for the second.
